Test results taken from paper PMC9506414, “Novel 2,6,9-Trisubstituted Purines as Potent CDK Inhibitors Alleviating Trastuzumab-Resistance of HER2-Positive Breast Cancers” (Pharmaceuticals, 2022).

What was measured:
Test in all cases: Kinome-wide inhibition profiling
Assay type in all cases: biochemical
[1] = target: T1, EPHA5 (Homo sapiens, UniProt P54756)
T1 construct: purchased Reaction Biology Corp
Description: (§1) In vitro CDK12/cyclinK assays for all compounds and in vitro kinome-wide inhibition profiling of 30d at 10 μM were performed by a CRO company (Reaction Biology Corp., San Diego, CA, USA).

[2] = target: T2, SGK3 (Homo sapiens, UniProt Q96BR1)
T2 construct: purchased Reaction Biology Corp
Description: as §1

[3] = target: T3, JNK1 (Homo sapiens, UniProt P45983)
T3 construct: purchased Reaction Biology Corp
Description: as §1

[4] = target: T4, CDK4/cyclinD1 (Homo sapiens, UniProt P11802)
T4 construct: purchased Reaction Biology Corp
Description: as §1

[5] = target: T5, CDK3/cyclinE (Homo sapiens, UniProt Q00526)
T5 construct: purchased Reaction Biology Corp
T5 sequence (Q00526 whole entry): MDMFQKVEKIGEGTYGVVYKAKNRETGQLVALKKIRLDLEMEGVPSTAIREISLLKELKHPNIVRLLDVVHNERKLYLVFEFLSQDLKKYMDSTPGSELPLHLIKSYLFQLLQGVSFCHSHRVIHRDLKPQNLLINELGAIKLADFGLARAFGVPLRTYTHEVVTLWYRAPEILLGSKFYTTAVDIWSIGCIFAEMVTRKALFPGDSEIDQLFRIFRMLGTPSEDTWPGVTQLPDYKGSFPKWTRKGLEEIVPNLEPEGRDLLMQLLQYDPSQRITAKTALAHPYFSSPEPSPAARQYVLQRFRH
T5 sequence (P24864 whole entry partner): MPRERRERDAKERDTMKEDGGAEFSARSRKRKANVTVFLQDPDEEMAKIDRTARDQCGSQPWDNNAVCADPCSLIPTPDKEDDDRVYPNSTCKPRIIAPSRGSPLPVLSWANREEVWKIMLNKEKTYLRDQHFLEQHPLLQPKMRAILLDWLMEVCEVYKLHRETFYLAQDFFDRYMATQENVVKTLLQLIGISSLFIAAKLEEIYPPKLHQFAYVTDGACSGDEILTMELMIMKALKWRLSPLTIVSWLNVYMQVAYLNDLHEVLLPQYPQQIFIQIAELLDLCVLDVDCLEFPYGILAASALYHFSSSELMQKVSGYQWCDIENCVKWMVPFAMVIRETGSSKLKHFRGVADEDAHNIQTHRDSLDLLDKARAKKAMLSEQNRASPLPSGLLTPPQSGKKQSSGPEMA
Description: as §1

[6] = target: T6, SIK (Homo sapiens, UniProt P57059)
T6 construct: purchased Reaction Biology Corp
Description: as §1

[7] = target: T7, MLK1 (Homo sapiens, UniProt P80192)
T7 construct: purchased Reaction Biology Corp
Description: as §1

[8] = target: T8, IRAK2 (Homo sapiens, UniProt O43187)
T8 construct: purchased Reaction Biology Corp
Description: as §1

[9] = target: T9, AurkB (Homo sapiens, UniProt Q96GD4)
T9 construct: purchased Reaction Biology Corp
Description: as §1

[10] = target: T10, PKAC-beta (Homo sapiens, UniProt P22694)
T10 construct: purchased Reaction Biology Corp
Description: as §1

[11] = target: T11, EGFR (Homo sapiens, UniProt P00533)
T11 construct: purchased Reaction Biology Corp
Description: as §1

[12] = target: T12, MAP3K1 (Homo sapiens, UniProt Q13233)
T12 construct: purchased Reaction Biology Corp
T12 sequence (Q13233 whole entry): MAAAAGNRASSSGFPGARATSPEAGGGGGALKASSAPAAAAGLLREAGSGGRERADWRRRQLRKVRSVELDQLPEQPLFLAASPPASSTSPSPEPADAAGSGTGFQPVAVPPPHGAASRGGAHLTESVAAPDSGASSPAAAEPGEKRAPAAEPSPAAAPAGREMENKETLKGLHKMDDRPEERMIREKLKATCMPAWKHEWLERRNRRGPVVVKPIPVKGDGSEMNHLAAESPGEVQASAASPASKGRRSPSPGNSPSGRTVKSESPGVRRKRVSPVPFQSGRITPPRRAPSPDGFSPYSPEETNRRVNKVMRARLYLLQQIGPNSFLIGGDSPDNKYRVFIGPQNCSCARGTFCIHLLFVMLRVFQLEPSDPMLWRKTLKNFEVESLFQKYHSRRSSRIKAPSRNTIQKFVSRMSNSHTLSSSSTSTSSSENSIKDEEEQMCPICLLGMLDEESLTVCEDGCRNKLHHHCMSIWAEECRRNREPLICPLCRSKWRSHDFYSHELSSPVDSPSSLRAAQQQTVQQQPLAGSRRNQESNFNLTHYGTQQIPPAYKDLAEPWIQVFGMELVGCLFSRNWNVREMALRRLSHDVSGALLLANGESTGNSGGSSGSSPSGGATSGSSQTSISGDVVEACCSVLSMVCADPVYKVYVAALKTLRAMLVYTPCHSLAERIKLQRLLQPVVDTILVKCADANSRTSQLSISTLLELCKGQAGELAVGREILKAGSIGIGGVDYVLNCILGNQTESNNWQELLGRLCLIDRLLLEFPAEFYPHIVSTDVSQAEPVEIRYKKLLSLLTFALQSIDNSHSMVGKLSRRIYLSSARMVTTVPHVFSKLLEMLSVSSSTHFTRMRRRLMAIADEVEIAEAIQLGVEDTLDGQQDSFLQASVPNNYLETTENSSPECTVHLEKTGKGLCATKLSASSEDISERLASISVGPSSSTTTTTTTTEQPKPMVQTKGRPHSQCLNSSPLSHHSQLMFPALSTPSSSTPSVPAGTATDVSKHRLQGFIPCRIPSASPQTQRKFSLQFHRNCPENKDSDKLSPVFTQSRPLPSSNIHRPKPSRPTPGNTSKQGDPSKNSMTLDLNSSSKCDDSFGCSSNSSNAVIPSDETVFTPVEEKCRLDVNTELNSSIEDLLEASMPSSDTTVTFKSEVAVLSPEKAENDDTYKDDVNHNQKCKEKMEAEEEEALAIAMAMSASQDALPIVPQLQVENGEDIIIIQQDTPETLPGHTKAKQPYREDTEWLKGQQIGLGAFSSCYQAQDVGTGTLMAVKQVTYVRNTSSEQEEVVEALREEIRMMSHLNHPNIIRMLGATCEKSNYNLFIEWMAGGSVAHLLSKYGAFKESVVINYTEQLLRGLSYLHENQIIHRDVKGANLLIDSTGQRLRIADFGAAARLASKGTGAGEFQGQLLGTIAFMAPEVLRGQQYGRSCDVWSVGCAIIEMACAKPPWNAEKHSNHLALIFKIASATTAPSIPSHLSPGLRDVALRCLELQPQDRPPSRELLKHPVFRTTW
Description: as §1

[13] = target: T13, PAK2 (Homo sapiens, UniProt Q13177)
T13 construct: purchased Reaction Biology Corp
Description: as §1

[14] = target: T14, LATS1 (Homo sapiens, UniProt O95835)
T14 construct: purchased Reaction Biology Corp
Description: as §1

[15] = target: T15, ERK2 (Homo sapiens, UniProt P28482)
T15 construct: purchased Reaction Biology Corp
Description: as §1

[16] = target: T16, MST1 (Homo sapiens, UniProt Q13043)
T16 construct: purchased Reaction Biology Corp
Description: as §1

[17] = target: T17, OSR1 (Homo sapiens, UniProt O95747)
T17 construct: purchased Reaction Biology Corp
Description: as §1

[18] = target: T18, MNK1 (Homo sapiens, UniProt Q9BUB5)
T18 construct: purchased Reaction Biology Corp
Description: as §1

[19] = target: T19, CDK16 (Homo sapiens, UniProt Q00536)
T19 construct: purchased Reaction Biology Corp
Description: as §1

[20] = target: T20, INSRR (Homo sapiens, UniProt P14616)
T20 construct: purchased Reaction Biology Corp
Description: as §1

[21] = target: T21, JNK3 (Homo sapiens, UniProt P53779)
T21 construct: purchased Reaction Biology Corp
T21 sequence (P53779 whole entry): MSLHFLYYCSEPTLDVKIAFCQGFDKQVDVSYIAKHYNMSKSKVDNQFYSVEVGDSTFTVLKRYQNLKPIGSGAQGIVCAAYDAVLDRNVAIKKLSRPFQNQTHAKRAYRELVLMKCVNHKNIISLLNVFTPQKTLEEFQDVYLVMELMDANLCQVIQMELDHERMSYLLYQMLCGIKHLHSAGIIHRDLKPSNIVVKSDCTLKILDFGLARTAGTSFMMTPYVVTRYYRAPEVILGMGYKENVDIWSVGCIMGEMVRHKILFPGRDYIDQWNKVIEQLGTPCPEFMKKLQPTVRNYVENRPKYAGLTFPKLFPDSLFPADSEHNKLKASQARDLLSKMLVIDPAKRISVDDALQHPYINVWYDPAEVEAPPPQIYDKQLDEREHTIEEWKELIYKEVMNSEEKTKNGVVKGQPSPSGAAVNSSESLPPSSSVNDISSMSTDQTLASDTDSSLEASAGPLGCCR
Description: as §1

[22] = target: T22, PAK1 (Homo sapiens, UniProt Q13153)
T22 construct: purchased Reaction Biology Corp
Description: as §1

[23] = target: T23, PAK4 (Homo sapiens, UniProt O96013)
T23 construct: purchased Reaction Biology Corp
Description: as §1

[24] = target: T24, MAST3 (Homo sapiens, UniProt O60307)
T24 construct: purchased Reaction Biology Corp
Description: as §1

[25] = target: T25, STK39 (Homo sapiens, UniProt Q9UEW8)
T25 construct: purchased Reaction Biology Corp
Description: as §1

[26] = target: T26, IRAK1 (Homo sapiens, UniProt P51617)
T26 construct: purchased Reaction Biology Corp
T26 sequence (P51617 whole entry): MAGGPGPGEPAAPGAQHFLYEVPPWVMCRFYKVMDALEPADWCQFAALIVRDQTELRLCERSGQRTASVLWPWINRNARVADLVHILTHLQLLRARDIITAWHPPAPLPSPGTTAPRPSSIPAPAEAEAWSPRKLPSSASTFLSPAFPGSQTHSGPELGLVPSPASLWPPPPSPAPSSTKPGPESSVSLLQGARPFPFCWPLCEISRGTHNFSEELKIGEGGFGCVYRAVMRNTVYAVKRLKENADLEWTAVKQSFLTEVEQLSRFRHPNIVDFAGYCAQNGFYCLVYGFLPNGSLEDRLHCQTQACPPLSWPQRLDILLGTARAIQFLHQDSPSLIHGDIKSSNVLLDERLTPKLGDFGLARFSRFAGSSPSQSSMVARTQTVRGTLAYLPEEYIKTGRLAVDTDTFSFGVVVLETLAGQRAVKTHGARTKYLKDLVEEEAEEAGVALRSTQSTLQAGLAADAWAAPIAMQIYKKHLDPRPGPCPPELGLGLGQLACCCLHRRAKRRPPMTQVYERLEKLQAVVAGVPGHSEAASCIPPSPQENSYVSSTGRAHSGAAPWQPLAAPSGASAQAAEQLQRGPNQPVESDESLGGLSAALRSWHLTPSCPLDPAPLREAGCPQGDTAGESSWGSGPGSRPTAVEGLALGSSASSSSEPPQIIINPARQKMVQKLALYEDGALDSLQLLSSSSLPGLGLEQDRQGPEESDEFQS
Description: as §1

[27] = target: T27, CSNK1G3 (Homo sapiens, UniProt Q9Y6M4)
T27 construct: purchased Reaction Biology Corp
Description: as §1

[28] = target: T28, MST3 (Homo sapiens, UniProt Q9Y6E0)
T28 construct: purchased Reaction Biology Corp
T28 sequence (Q9Y6E0 whole entry): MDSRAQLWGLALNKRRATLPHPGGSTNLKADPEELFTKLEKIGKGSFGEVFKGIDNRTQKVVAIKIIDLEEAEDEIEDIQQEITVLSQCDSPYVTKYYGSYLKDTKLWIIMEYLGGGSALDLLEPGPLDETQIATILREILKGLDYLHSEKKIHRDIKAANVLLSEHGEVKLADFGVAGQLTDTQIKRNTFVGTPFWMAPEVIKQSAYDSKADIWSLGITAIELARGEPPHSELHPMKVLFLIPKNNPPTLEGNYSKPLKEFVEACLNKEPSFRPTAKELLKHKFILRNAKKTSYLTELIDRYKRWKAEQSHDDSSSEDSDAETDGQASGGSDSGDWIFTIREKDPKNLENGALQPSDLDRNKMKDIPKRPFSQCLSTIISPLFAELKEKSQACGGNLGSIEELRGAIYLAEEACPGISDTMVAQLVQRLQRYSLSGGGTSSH
Description: as §1

[29] = target: T29, PKN1 (Homo sapiens, UniProt Q16512)
T29 construct: purchased Reaction Biology Corp
Description: as §1

[30] = target: T30, MST1R (Homo sapiens, UniProt Q04912)
T30 construct: purchased Reaction Biology Corp
Description: as §1

[31] = target: T31, TAK1 (Homo sapiens, UniProt O43318)
T31 construct: purchased Reaction Biology Corp
Description: as §1

[32] = target: T32, CSNK1G2 (Homo sapiens, UniProt P78368)
T32 construct: purchased Reaction Biology Corp
Description: as §1

[33] = target: T33, ICK (Homo sapiens, UniProt Q9UPZ9)
T33 construct: purchased Reaction Biology Corp
Description: as §1

[34] = target: T34, SGK1 (Homo sapiens, UniProt O00141)
T34 construct: purchased Reaction Biology Corp
Description: as §1

[35] = target: T35, PYK2 (Homo sapiens, UniProt Q14289)
T35 construct: purchased Reaction Biology Corp
Description: as §1

[36] = target: T36, SIK2 (Homo sapiens, UniProt Q9H0K1)
T36 construct: purchased Reaction Biology Corp
Description: as §1

[37] = target: T37, RSK4 (Homo sapiens, UniProt Q9UK32)
T37 construct: purchased Reaction Biology Corp
Description: as §1

[38] = target: T38, PDPK1 (Homo sapiens, UniProt O15530)
T38 construct: purchased Reaction Biology Corp
T38 sequence (O15530 whole entry): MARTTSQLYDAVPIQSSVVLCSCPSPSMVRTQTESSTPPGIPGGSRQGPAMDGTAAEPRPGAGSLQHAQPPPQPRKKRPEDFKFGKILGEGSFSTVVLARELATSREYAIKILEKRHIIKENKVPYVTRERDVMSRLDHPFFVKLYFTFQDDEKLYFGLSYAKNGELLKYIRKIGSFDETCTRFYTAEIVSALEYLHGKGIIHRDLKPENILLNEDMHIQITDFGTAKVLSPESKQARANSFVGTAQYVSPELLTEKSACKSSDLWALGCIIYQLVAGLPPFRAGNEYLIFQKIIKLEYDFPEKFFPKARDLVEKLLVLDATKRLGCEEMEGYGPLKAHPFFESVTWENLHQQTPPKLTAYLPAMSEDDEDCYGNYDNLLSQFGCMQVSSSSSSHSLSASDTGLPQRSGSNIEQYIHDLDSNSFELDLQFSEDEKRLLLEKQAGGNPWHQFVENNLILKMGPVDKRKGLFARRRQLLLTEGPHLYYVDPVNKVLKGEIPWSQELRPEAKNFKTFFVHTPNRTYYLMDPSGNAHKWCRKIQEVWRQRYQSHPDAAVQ
Description: as §1

[39] = target: T39, MAP3K8 (Homo sapiens, UniProt P41279)
T39 construct: purchased Reaction Biology Corp
T39 sequence (P41279 whole entry): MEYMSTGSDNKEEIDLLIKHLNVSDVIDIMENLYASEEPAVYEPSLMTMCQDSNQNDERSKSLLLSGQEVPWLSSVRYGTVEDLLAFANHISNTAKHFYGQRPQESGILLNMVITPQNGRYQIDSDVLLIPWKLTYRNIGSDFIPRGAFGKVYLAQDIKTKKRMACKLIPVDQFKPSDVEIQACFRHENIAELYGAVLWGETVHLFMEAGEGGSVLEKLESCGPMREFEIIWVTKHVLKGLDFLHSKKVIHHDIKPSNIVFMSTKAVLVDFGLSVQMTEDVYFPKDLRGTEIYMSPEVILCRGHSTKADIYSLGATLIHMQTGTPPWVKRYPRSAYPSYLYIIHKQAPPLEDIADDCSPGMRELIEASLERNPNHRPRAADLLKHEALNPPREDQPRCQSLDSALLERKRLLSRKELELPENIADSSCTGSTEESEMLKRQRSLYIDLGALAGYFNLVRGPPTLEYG
Description: as §1

[40] = target: T40, CHEK1 (Homo sapiens, UniProt O14757)
T40 construct: purchased Reaction Biology Corp
Description: as §1

[41] = target: T41, TSSK6 (Homo sapiens, UniProt Q9BXA6)
T41 construct: purchased Reaction Biology Corp
Description: as §1

[42] = target: T42, MAP3K2 (Homo sapiens, UniProt Q9Y2U5)
T42 construct: purchased Reaction Biology Corp
Description: as §1

[43] = target: T43, TRKC (Homo sapiens, UniProt Q16288)
T43 construct: purchased Reaction Biology Corp
Description: as §1

[44] = target: T44, CDC7/DBF4 (Homo sapiens, UniProt O00311)
T44 construct: purchased Reaction Biology Corp
Description: as §1

**Q.** What does the source list for `CCn1cnc2c(NCc3ccc(-c4ccccn4)nc3)nc(-c3ccc(N)nc3)nc21` [Compound 30d, N-([2,2′-Bipyridin]-5-ylmethyl)-2-(6-aminopyridin-3-yl)-9-ethyl-9H-purin-6-amine]?
**A.** remaining activity at 10 µM [1]: 5.9%; remaining activity at 10 µM [2]: 92.6%; remaining activity at 10 µM [3]: 41.6%; remaining activity at 10 µM [4]: 33.5%; inhibition at 10 µM [5]: > 95%; remaining activity at 10 µM [5]: 1%; remaining activity at 10 µM [6]: 56.3%; remaining activity at 10 µM [7]: 27.9%; remaining activity at 10 µM [8]: 97.5%; remaining activity at 10 µM [9]: 73%; remaining activity at 10 µM [10]: 104%; remaining activity at 10 µM [11]: 83.7%; remaining activity at 10 µM [12]: 87%; remaining activity at 10 µM [13]: 46.7%; remaining activity at 10 µM [14]: 85%; remaining activity at 10 µM [15]: 10.6%; remaining activity at 10 µM [16]: 62.2%; remaining activity at 10 µM [17]: 50.8%; remaining activity at 10 µM [18]: 89.3%; remaining activity at 10 µM [19]: 17.5%; remaining activity at 10 µM [20]: 31.1%; remaining activity at 10 µM [21]: 48.7%; remaining activity at 10 µM [22]: 24.5%; remaining activity at 10 µM [23]: 12.9%; remaining activity at 10 µM [24]: 39.3%; remaining activity at 10 µM [25]: 29.6%; remaining activity at 10 µM [26]: 79%; remaining activity at 10 µM [27]: 24.4%; remaining activity at 10 µM [28]: 47%; remaining activity at 10 µM [29]: 85.4%; remaining activity at 10 µM [30]: 86.8%; remaining activity at 10 µM [31]: 98.2%; remaining activity at 10 µM [32]: 27%; remaining activity at 10 µM [33]: 39.6%; remaining activity at 10 µM [34]: 84.9%; remaining activity at 10 µM [35]: 47.5%; remaining activity at 10 µM [36]: 35.9%; remaining activity at 10 µM [37]: 54.2%; remaining activity at 10 µM [38]: 105%; remaining activity at 10 µM [39]: 102%; remaining activity at 10 µM [40]: 79.5%; remaining activity at 10 µM [41]: 86.9%; remaining activity at 10 µM [42]: 90%; remaining activity at 10 µM [43]: 54.9%; remaining activity at 10 µM [44]: 98.2%
